The text below walks through data of PubChem BioAssay (NCI).

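All cell lines were grown in 96-well plates and treated with compound for 48 hours. GI50: concentration for 50% inhibition of growth. TGI is the concentration that stops growth completely.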

Test systems include HCT-116 colon; MDA-MB-231 breast; DU-145 prostate; SK-MEL-5 melanoma; OVCAR-4 ovarian; NCI-H522 lung; NCI/ADR-RES ovarian; CAKI-1 renal; U251 CNS; SF-539 CNS.
What all share (experiment): inhibition of tumour cell growth, NCI panel, 48 h

On to `Nc1nc2c(c3ncncc13)C(c1cccc(C(F)(F)F)c1)Cc1ncncc1-2` (centres undefined), for which the GI50 in the assay on HCT-116 colon was 4.85 µM; in the assay with MDA-MB-231 breast it was 11.1 µM; in the assay on DU-145 prostate, 3.78 µM; in the assay on SK-MEL-5 melanoma, 4.88 µM; in the assay on OVCAR-4 ovarian, 10.8 µM; in the assay with NCI-H522 lung, 4.66 µM. The GI50 was 3.48 µM with NCI/ADR-RES ovarian, 4.29 µM with CAKI-1 renal, 3.69 µM in the assay on U251 CNS and 1.98 µM in the assay with SF-539 CNS. The TGI was 37 µM in the assay with HCT-116 colon; 31.3 µM in the assay with MDA-MB-231 breast; > 100 µM in the assay with DU-145 prostate; 17.7 µM in the assay on SK-MEL-5 melanoma; > 100 µM with OVCAR-4 ovarian; 26.1 µM in the assay on NCI-H522 lung. The TGI in the assay on NCI/ADR-RES ovarian was > 100 µM; with CAKI-1 renal, > 100 µM; in the assay on U251 CNS it was 13.6 µM; in the assay with SF-539 CNS it was 5.97 µM.

Take `COc1ccc(-c2csc(N(C(=O)N3CCN(c4cc5c(cc4F)c(=O)c(C(=O)O)cn5C4CC4)CC3)c3ccccc3)n2)cc1`: the GI50 was 0.897 µM with HCT-116 colon; 2.44 µM in the assay on MDA-MB-231 breast; 1.49 µM in the assay on DU-145 prostate; 2.86 µM with SK-MEL-5 melanoma; 1.56 µM with OVCAR-4 ovarian; 2.16 µM with NCI-H522 lung. The GI50 was 3.78 µM with NCI/ADR-RES ovarian, 2.46 µM in the assay on CAKI-1 renal, 0.973 µM in the assay with U251 CNS and 2.93 µM with SF-539 CNS. Moreover, the TGI in the assay with HCT-116 colon was > 63.7 µM; with MDA-MB-231 breast, 8.13 µM; in the assay with DU-145 prostate, > 100 µM; with SK-MEL-5 melanoma, 8.39 µM; in the assay with OVCAR-4 ovarian, > 100 µM; with NCI-H522 lung it was 6.8 µM. The TGI in the assay on NCI/ADR-RES ovarian is > 100 µM; in the assay with CAKI-1 renal, 8.76 µM; with U251 CNS, > 34.3 µM; in the assay on SF-539 CNS, 48.7 µM.

For the compound `Nc1ccccc1C#C/C=C\C#Cc1cccs1`, the GI50 in the assay on HCT-116 colon was 9.55 µM; in the assay on DU-145 prostate, 10.2 µM; in the assay with SK-MEL-5 melanoma, 4.36 µM; in the assay on OVCAR-4 ovarian it was 16.2 µM; in the assay on NCI-H522 lung, 6.84 µM; in the assay with NCI/ADR-RES ovarian, 8.69 µM. Also, the values for the GI50 with CAKI-1 renal, with U251 CNS and with SF-539 CNS were 3.75 µM, 8.34 µM and 5.6 µM, respectively. For the same compound, the TGI in the assay with HCT-116 colon is 46.5 µM; in the assay with MDA-MB-231 breast, 4.47 µM; in the assay with DU-145 prostate, 31.6 µM; with SK-MEL-5 melanoma it was 17.6 µM; in the assay with OVCAR-4 ovarian it was > 50.7 µM; in the assay on NCI-H522 lung, 31.6 µM. The TGI with NCI/ADR-RES ovarian was 27.7 µM; in the assay on CAKI-1 renal, 21 µM; in the assay on U251 CNS, 27.5 µM; with SF-539 CNS, 17.8 µM.

On to `CCCC(C)c1cc(Cc2cc(Cl)cc(Cl)c2O)c(O)c(Cc2cc(Cl)cc(Cl)c2O)c1` (centres undefined), for which the GI50 is 0.384 µM in the assay on HCT-116 colon; 1.24 µM with MDA-MB-231 breast; 3.89 µM in the assay with DU-145 prostate; 0.428 µM in the assay with SK-MEL-5 melanoma; 2.02 µM in the assay with OVCAR-4 ovarian; 0.4 µM with NCI-H522 lung. Moreover, the GI50 in the assay with NCI/ADR-RES ovarian is 1.66 µM; with CAKI-1 renal, 1.23 µM; in the assay on U251 CNS it was 0.839 µM; with SF-539 CNS, 1.09 µM. Besides, the TGI in the assay with HCT-116 colon turned out to be 3.97 µM; in the assay on MDA-MB-231 breast it was 4.19 µM; in the assay with DU-145 prostate it was 15.5 µM; in the assay on SK-MEL-5 melanoma it was 2.21 µM; in the assay with OVCAR-4 ovarian it was 13.7 µM; in the assay on NCI-H522 lung it was 6.6 µM. Besides, the TGI came out at 11.2 µM in the assay with NCI/ADR-RES ovarian, 10.4 µM in the assay on CAKI-1 renal, 11.1 µM in the assay on U251 CNS and 7.28 µM with SF-539 CNS.

On to `COC(=O)[C@@]1(C)CC[C@]2(C)CC[C@]3(C)C4=CC=C5C(=CC(=O)C(O)=C5C)[C@]4(C)[C@@H](O)C[C@@]3(C)[C@@H]2C1`, for which the GI50 with HCT-116 colon was 3.67 µM; in the assay with MDA-MB-231 breast, 10.2 µM; in the assay with DU-145 prostate, 12.3 µM; in the assay on SK-MEL-5 melanoma, 16.5 µM; in the assay on OVCAR-4 ovarian it was 8.38 µM; in the assay on NCI-H522 lung, 8.39 µM. Also, the GI50 was 15.3 µM in the assay with NCI/ADR-RES ovarian, 3.94 µM in the assay on CAKI-1 renal, 8.71 µM with U251 CNS and 15.7 µM with SF-539 CNS. For the same compound, the TGI in the assay with HCT-116 colon came out at 14.3 µM; with MDA-MB-231 breast, 21.8 µM; in the assay on DU-145 prostate, 23.3 µM; in the assay with SK-MEL-5 melanoma it was 32.6 µM; with OVCAR-4 ovarian, 19.7 µM; in the assay with NCI-H522 lung, 20 µM. Moreover, the TGI was 34.8 µM in the assay on NCI/ADR-RES ovarian, 13.9 µM with CAKI-1 renal, 18.7 µM in the assay on U251 CNS and 28.8 µM with SF-539 CNS.

As to `O=C1c2cccnc2C(=O)c2nc3cc(N4CCN(C5CC5)CC4)ccc3nc21`, the GI50 is 0.789 µM with HCT-116 colon; 2.15 µM in the assay with MDA-MB-231 breast; 0.242 µM in the assay on DU-145 prostate; 0.252 µM with SK-MEL-5 melanoma; 1.27 µM with OVCAR-4 ovarian; 0.238 µM in the assay on NCI-H522 lung. For the same compound, the GI50 in the assay on NCI/ADR-RES ovarian is 1.95 µM; in the assay with CAKI-1 renal it was 0.439 µM; in the assay with U251 CNS, 0.383 µM; in the assay with SF-539 CNS, 0.442 µM. The TGI in the assay on HCT-116 colon stood at 7.12 µM; in the assay on MDA-MB-231 breast, 8.08 µM; with DU-145 prostate it was 0.833 µM; in the assay on SK-MEL-5 melanoma, 0.686 µM; in the assay with OVCAR-4 ovarian, 2.55 µM; with NCI-H522 lung, 1.36 µM. Moreover, the TGI in the assay on NCI/ADR-RES ovarian is 8.14 µM; in the assay with CAKI-1 renal it was 3.05 µM; with U251 CNS, 2.02 µM; with SF-539 CNS, 1.66 µM.

Turning to `Cc1ccccc1[P+](Cc1ccccc1)(c1ccccc1)c1ccccc1`, the GI50 in the assay with HCT-116 colon is 1.92 µM; with MDA-MB-231 breast it was 2.06 µM; in the assay on DU-145 prostate, 3.69 µM; in the assay on SK-MEL-5 melanoma, 0.863 µM; in the assay with OVCAR-4 ovarian, 1.91 µM; in the assay with NCI-H522 lung, 2.09 µM. The GI50 was > 100 µM with NCI/ADR-RES ovarian, 12.1 µM with CAKI-1 renal, 1.99 µM in the assay with U251 CNS and 2.34 µM in the assay on SF-539 CNS. In addition, the TGI in the assay with HCT-116 colon is > 100 µM; with MDA-MB-231 breast, 28 µM; in the assay with DU-145 prostate, > 100 µM; with SK-MEL-5 melanoma, 2.29 µM; with OVCAR-4 ovarian, > 100 µM; in the assay on NCI-H522 lung, 10.5 µM. Further, the TGI is > 100 µM in the assay with NCI/ADR-RES ovarian, > 100 µM in the assay with CAKI-1 renal, 35.2 µM in the assay with U251 CNS and 24.7 µM in the assay on SF-539 CNS.

In the case of `COc1ccc(/C(C#N)=C/c2ccccc2OC)cc1`, the GI50 with HCT-116 colon was 4.46 µM; in the assay on MDA-MB-231 breast, 7.02 µM; in the assay with DU-145 prostate, 27.7 µM; in the assay on SK-MEL-5 melanoma, 9.25 µM; in the assay on OVCAR-4 ovarian it was 32.5 µM; in the assay with NCI-H522 lung, 4.85 µM. Further, the GI50 is 3.66 µM in the assay on NCI/ADR-RES ovarian, 6.49 µM in the assay on CAKI-1 renal, 4.63 µM in the assay on U251 CNS and 20.5 µM in the assay on SF-539 CNS. In addition, the TGI with HCT-116 colon was > 100 µM; with MDA-MB-231 breast it was > 100 µM; in the assay on DU-145 prostate, > 100 µM; in the assay with SK-MEL-5 melanoma it was > 100 µM; with OVCAR-4 ovarian, > 100 µM; in the assay on NCI-H522 lung, 32.3 µM. For the same compound, the TGI was > 100 µM with NCI/ADR-RES ovarian, > 100 µM with CAKI-1 renal, 78.4 µM with U251 CNS and > 100 µM in the assay on SF-539 CNS.

With `CN(C)CCCNC(CC#N)CCC#N` (centres undefined), the TGI with HCT-116 colon, in the assay on MDA-MB-231 breast, in the assay on DU-145 prostate, in the assay with SK-MEL-5 melanoma, with OVCAR-4 ovarian and with NCI-H522 lung was > 10 µM in each case. Also, the TGI in the assay on NCI/ADR-RES ovarian, in the assay on CAKI-1 renal, in the assay on U251 CNS and in the assay on SF-539 CNS was > 10 µM in each case.

As to `CC[C@@H](C(=O)O)C1CC[C@H](C)C([C@@H](C)[C@H](O)[C@H](C)C(=O)[C@H](CC)C2O[C@]3(C=C[C@@H](O)[C@]4(CC[C@@](C)(C5CC[C@](O)(CC)[C@H](C)O5)O4)O3)[C@H](C)C[C@@H]2C)O1` (some centres undefined), the GI50 in the assay with HCT-116 colon is 0.369 µM; in the assay with MDA-MB-231 breast, 0.863 µM; in the assay with DU-145 prostate, 0.805 µM; in the assay with SK-MEL-5 melanoma it was 0.18 µM; in the assay on OVCAR-4 ovarian it was 0.657 µM; in the assay on NCI-H522 lung it was 0.0785 µM. The GI50 in the assay on NCI/ADR-RES ovarian was 0.443 µM; in the assay with CAKI-1 renal, 0.19 µM; in the assay with U251 CNS it was 0.115 µM; in the assay on SF-539 CNS, 0.309 µM. Also, the TGI worked out at 16.6 µM in the assay on HCT-116 colon; 5.51 µM in the assay on MDA-MB-231 breast; 32.4 µM with DU-145 prostate; 0.86 µM in the assay on SK-MEL-5 melanoma; 33.7 µM in the assay with OVCAR-4 ovarian; 1.78 µM with NCI-H522 lung. Besides, the TGI in the assay on NCI/ADR-RES ovarian turned out to be 34.7 µM; in the assay on CAKI-1 renal it was 18.2 µM; in the assay on U251 CNS, 10.2 µM; with SF-539 CNS, 3.9 µM.

Take `COc1cccc(-n2ncc3c(N/N=C/c4ccc(C(=O)NCCN(C)C)cc4)ncnc32)c1`: the GI50 in the assay on HCT-116 colon is 2.76 µM; in the assay on MDA-MB-231 breast, 3.4 µM; in the assay with DU-145 prostate, 3.18 µM; with SK-MEL-5 melanoma, 2.95 µM; in the assay on OVCAR-4 ovarian, 3.16 µM; in the assay with NCI-H522 lung, 2.04 µM. Moreover, the GI50 in the assay with NCI/ADR-RES ovarian is 5.25 µM; with CAKI-1 renal it was 1.27 µM; with U251 CNS it was 3.25 µM; with SF-539 CNS, 3.78 µM. Also, the TGI in the assay with HCT-116 colon worked out at 6.21 µM; with MDA-MB-231 breast, 7.23 µM; in the assay with DU-145 prostate, 6.57 µM; with SK-MEL-5 melanoma, 6.09 µM; in the assay with OVCAR-4 ovarian, 7.56 µM; with NCI-H522 lung it was 5.96 µM. Further, the TGI with NCI/ADR-RES ovarian amounted to 11.2 µM; with CAKI-1 renal it was 5.48 µM; with U251 CNS, 6.77 µM; with SF-539 CNS, 7.79 µM.
